Laboratory results as given in BigSolDB 2.1.

Nc1ccc(S(=O)(=O)Nc2ncccn2)cc1
solubility (mole fraction) (in NMP, 278.15 K): 0.0118
solubility (mole fraction) (in NMP, 283.15 K): 0.0137
solubility (mole fraction) (in NMP, 288.15 K): 0.0153
solubility (mole fraction) (in NMP, 293.15 K): 0.018
solubility (mole fraction) (in NMP, 298.15 K): 0.0194
solubility (mole fraction) (in NMP, 303.15 K): 0.0224
solubility (mole fraction) (in NMP, 308.15 K): 0.132
solubility (mole fraction) (in NMP, 313.15 K): 0.137
solubility (mole fraction) (in water, 278.15 K): 1.89e-06
solubility (mole fraction) (in water, 283.15 K): 2.51e-06
solubility (mole fraction) (in water, 288.15 K): 3.18e-06
solubility (mole fraction) (in water, 293.15 K): 3.96e-06
solubility (mole fraction) (in water, 298.15 K): 5.13e-06
solubility (mole fraction) (in water, 303.15 K): 6.32e-06
solubility (mole fraction) (in water, 308.15 K): 8.03e-06
solubility (mole fraction) (in water, 313.15 K): 9.98e-06
